The values that follow come from patent US20210361598A1, “COMPOUNDS FOR PREVENTION AND TREATMENT OF POST-INTENSIVE CARE COGNITIVE DYSFUNCTION AND COGNITIVE DYSFUNCTION RESULTING FROM RESPIRATORY DISTRESS” (Abrexa Pharmaceuticals, Inc., priority 2020, published 2021).

Entries after “also recorded” stand apart in the source; their conditions may differ.

In series [1] the test system is post-surgical cognitive dysfunction. Particulars: cited from earlier work; for Effect on post-surgical cognitive dysfunction: literature reports, after surgery.
In series [2] the test system is neonatal hypoxic-ischemic brain injury in p10 C57BL6 mice. Description: TTC staining infarct measurement in neonatal hypoxic-ischemic (HI) injury mouse model. The format is in vivo. The protocol:
(§1) Postnatal day 10 mice were subjected to the modified Vanucci-Rice model of neonatal hypoxic-ischemic injury (permanent right common carotid artery ligation followed by 8% oxygen/balance nitrogen exposure) and then treatment started the same day by daily oral gavage with J147 at 10 mg/kg/day for 2 weeks after injury. Infarction volume, performance on functional tests of coordination, locomotion and memory, markers of neurogenesis, and apoptotic cell death were measured. Hypoxic-ischemic (HI) injury and J147 treatment: To induce HI injury, permanent right common carotid artery ligation was performed in p10 C57BL6 mice followed by 8% oxygen/balance nitrogen exposure for 45 min at 37° C. hypoxic chamber. From the day of HI injury, either J147 (10 mg/kg/day) or vehicle (corn oil, same volume) were once daily administered through oral gavage for a period of two weeks. TTC staining: 24 h after HI injury, 2 mm coronal brain sections were immersed in 1% 2,3,5-Triphenyltetrazolium chloride (TTC) at 37° C. for 30 min. Images of individual sections were digitized and infarct area was measured with the ImageJ software. Injury volumes were calculated using [contralateral hemisphere volume-(ipsilateral hemisphere volume-lesion volume)]/contralateral hemisphere volume×100.

The test system is the same in series [3]. Description: Postmortem MRI volumetric measurement of lesion in neonatal HI mouse model. The class given is in vivo. The protocol: Postnatal day 10 mice were subjected to the modified Vanucci-Rice model of neonatal hypoxic-ischemic injury (permanent right common carotid artery ligation followed by 8% oxygen/balance nitrogen exposure) and then treatment started the same day by daily oral gavage with J147 at 10 mg/kg/day for 2 weeks after injury. Infarction volume, performance on functional tests of coordination, locomotion and memory, markers of neurogenesis, and apoptotic cell death were measured. Hypoxic-ischemic (HI) injury and J147 treatment: To induce HI injury, permanent right common carotid artery ligation was performed in p10 C57BL6 mice followed by 8% oxygen/balance nitrogen exposure for 45 min at 37° C. hypoxic chamber. From the day of HI injury, either J147 (10 mg/kg/day) or vehicle (corn oil, same volume) were once daily administered through oral gavage for a period of two weeks. Magnetic resonance imaging (MRI): […] A 3D rapid acquisition with refocused echoes sequence was used (TE/TR=40/2000 ms, RARE factor=8, 4 signal averages, FOV=16.0 mm×9.0 mm×18.0 mm, matrix size=128×72×144, native resolution≈125×125×125 um3, time=3 h). Volumetric measurements were performed using ROI editor software.

Series [4] relates to neonatal hypoxic-ischemic encephalopathy (HIE) in C57BL6 mice. Description: TUNEL staining, dose dependency of apoptotic cell death in dentate gyrus, neonatal HIE mouse model. The class given is in vivo. Particulars: n=6, HIE untreated 141.7+56.6. As to the method: C57BL6 mice were subjected to complete unilateral carotid blockage using cauterizer at P10 followed by 45 min hypoxic exposure at 8% O2, and this was followed by daily oral gavage delivery of J147 in a range of doses or vehicle at P10-P14. Then animals were sacrificed and processed for TUNEL staining. In sham group, very few TUNEL+ cells are observed in dentate gyrus (DG, 4.7+4.1/each). […] For 10 μg/g/day group and 25 μg/g/day group, 42.2+23 (p<0.001) and 31.7+21.4 (p<0.001) cells are found in DG (One-way ANOVA; n=6).

For series [5], the system named is neonatal hypoxic-ischemic brain injury in p10 C57BL6 mice. Description: Open field test in HI mice. The class given is in vivo, mouse. The conditions noted are these: 4 days post HI. The protocol: as §1, with “TTC staining: 24 h after HI injury, 2 mm coronal brain sections were immersed in 1% 2,3,5-Triphenyltetrazolium chloride (TTC) at 37° C. for 30 min. Images of individual sections were digitized and infarct area was measured with the ImageJ software. Injury volumes were calculated using [contralateral hemisphere volume-(ipsilateral hemisphere volume-lesion volume)]/contralateral hemisphere volume×100.” left out

For series [6] the test system is unchanged. As to the kind of experiment: Rotarod test in HI mice. The class given is in vivo, mouse. The conditions noted are these: 5 weeks after HI. The protocol: as §1, with “TTC staining: 24 h after HI injury, 2 mm coronal brain sections were immersed in 1% 2,3,5-Triphenyltetrazolium chloride (TTC) at 37° C. for 30 min. Images of individual sections were digitized and infarct area was measured with the ImageJ software. Injury volumes were calculated using [contralateral hemisphere volume-(ipsilateral hemisphere volume-lesion volume)]/contralateral hemisphere volume×100.” left out
On the technique in general: In the rotarod test animals must keep their balance on a rotating rod.

Series [7] shares this test system. Description: Y-maze spontaneous alternation test in HI mice. The class given is in vivo, mouse. Particulars: 50 days after HI; p<0.001. As to the method: as §1, with “TTC staining: 24 h after HI injury, 2 mm coronal brain sections were immersed in 1% 2,3,5-Triphenyltetrazolium chloride (TTC) at 37° C. for 30 min. Images of individual sections were digitized and infarct area was measured with the ImageJ software. Injury volumes were calculated using [contralateral hemisphere volume-(ipsilateral hemisphere volume-lesion volume)]/contralateral hemisphere volume×100.” left out

Series [8] has the same test system. As to the kind of experiment: Neural precursor marker fluorescence staining in HI mice. The class given is in vivo, mouse.
Series [9] relates to neonatal hypoxic-ischemia (HI) in mice. As to the kind of experiment: NeuN+ area and TUNEL+ cell count in hippocampus of HI mice.
Experimental: Neonatal hypoxic-ischemia (HI) was performed at P10 and daily 10 μg/g J147 was gavage-fed from P10 to P14.

For `Cc1cccc([C@H](C)c2cnc[nH]2)c1C` [Dexmedetomidine], the “Effect on post-surgical cognitive dysfunction” value in [1] is listed as “failed to show efficacy”.
Regarding `COc1cccc(/C=N/N(C(=O)C(F)(F)F)c2ccc(C)cc2C)c1` [J147], the “Area of brain injury / lesion size by TTC staining (FIG. 2)” value in series [2] (24 hours after HI injury, J147 10 mg/kg/day oral gavage, 10 mg/kg/day) is recorded as “reduced lesion size; also recorded: reduced areal extent of injury; also recorded: significantly reduces the area of brain injury”. Also, the “Infarct size as measured by TTC staining, reduction relative to HI controls” value in [2] (one day of J147 treatment, 10 mg/kg/day oral gavage, 24 h after HI injury, p<0.001) stood at 48%. Further, in series [3] (50 days after hypoxia-ischemia injury, J147 10 mg/kg/day for 2 weeks, 10 mg/kg/day), the “Ipsilateral hemisphere volume as percentage of contralateral hemisphere volume by MRI, area of brain injury (FIG. 3)” value is “reduced lesion size; also recorded: substantial reduction of effect compared with HI; also recorded: almost entirely reduces the area of brain injury”. For the same compound, the “MRI reduction in infarction volume, HIJ mice compared with untreated HI mice” value in series [3] (MRI measurements at 50 days) is given as approximately 50%. For the same compound, the “MRI imaging reduction in lesion size” value in series [3] (adult mice, two weeks of J147 treatment 10 mg/kg/day oral gavage, p<0.001) is 88%. Besides, the “TUNEL+ cells in dentate gyrus” value in [4] (0.5 μg/g/day oral gavage P10-P14, p>0.05) is 123.2+51.5 cells; in series [4] (1 μg/g/day oral gavage P10-P14, p>0.05) it was 107.8+42.7 cells; in [4] (5 μg/g/day oral gavage P10-P14, p<0.01), 55+23.6 cells; in series [4] (10 μg/g/day oral gavage P10-P14, p<0.001), 42.2+23 cells; in [4] (25 μg/g/day oral gavage P10-P14, p<0.001), 31.7+21.4 cells. Further, the “Performance in the open field test” value in [5] is on record as “significant improvement”. Further, the “Open field test performance, improvement” value in series [5] (J147 treatment group) is listed as “about 25%”. For the same compound, in [6], the “Performance in the rotarod test” value was “significant improvement”. Further, in series [6] (chronic, J147 treatment group), the “Rotarod test performance, improvement” value was “about 25%”. In addition, in series [7], the “Y-maze spatial learning task, improvement compared to HI controls” value came to 33%. In addition, the Tbr2-positive cells entry in [8] (at one week after injury) is reported as “significant increase”. Besides, the Nestin-positive cells entry in series [8] (one day and one week after injury) was “increased”. In series [9] (HI+J147, daily 10 μg/g gavage P10 to P14, SH 0.52, HI 0.32, p=0.0433), the “NeuN+ area in hippocampus” value turned out to be 0.45 mm2/section. Moreover, the “TUNEL+ apoptotic cells in hippocampus” value in [9] (HI+J147, daily 10 μg/g gavage P10 to P14, SH 36.33, HI 372.67, p=0.0092) is recorded as 208.17 /section. The “Reduction in apoptotic cell death in the hippocampus” value in [9] (J147 treatment, summary) is on record as “roughly 50%”.
With `[Mg+2]` [Magnesium], the “Effect on post-surgical cognitive dysfunction” value in series [1] is listed as “failed to reduce post-surgical cognitive dysfunction”.
Consider `CCN(C)C(=O)Oc1cccc([C@H](C)N(C)C)c1` [Rivastigmine], for which the “Safety in seriously ill patients after surgery” value in series [1] (clinical investigation NCT00835159, terminated) was “too dangerous”. In addition, the “Effect on post-surgical cognitive dysfunction” value in series [1] is reported as “no efficacy was observed”.
For the compound `COc1cc2c(cc1OC)C(=O)C(CC1CCN(Cc3ccccc3)CC1)C2` (stereo not shown) [donepezil], the “Effect on the overall cognitive index” value in series [1] (patients with cognitive decline one year after cardiac surgery) is listed as “had no effect”.
